The values that follow come from patent US12252503B2, “Cannabinoid derivatives” (priority 2019, dated 2025).

One assay concerns the target T1, human CB2 receptor (Homo sapiens, UniProt P34972).
T1 construct: host or cells: CHO-K1 (Chinese hamster ovary) cells, membrane preparation
Put plainly: CB2 radioligand competitive binding assay ([3H]CP 55,940 displacement). The conditions noted are these: for Selectivity CB2 (fold difference in selectivity between CB1 and CB2 binding): given in the column of the receptor with the higher binding affinity, 1.00 in both = about the same affinity; for IC50: membranes of CHO-K1 cells expressing human CB2 receptor, 0.6 nM [3H]CP55,940. As for the experimental part: The membranes were prepared from CHO-K1 (Chinese hamster ovary) cells stably transfected with the human CB2 receptor (Cat. #ES-111-C; Perkin Elmer, Boston, MA). The cells were grown adherently and maintained in Ham's F12 medium containing 10% fetal bovine serum (FBS), penicillin, streptomycin and geneticin (G418) at 37° C. in a humid atmosphere of 5% CO2 following the manufacturer's instructions.
For membrane preparation the cells were washed with PBS and scraped off the plates in cold homogenization buffer (25 mM HEPES (pH 7.4), 2 mM EDTA) containing protease inhibitor cocktail (Sigma Cat. #P8340). The cell suspension was homogenized with a Pro-PK-01200D Polytron Homogenizer (Pro Scientific) and then centrifuged for 30 min at 120,000×g. The supernatant was discarded and the pellet was re-suspended in the homogenization buffer and stored at −80° C. until the time of use.
In this experiment, 3H radiolabeled CP 55,940, i.e. [3H]CP 55,940 (Perkin Elmer, Boston, MA), was used as a radioligand for the CB2 receptor to determine the binding affinity of compounds for the CB2 receptor (Scheme 4; above).
The competition binding experiments (single dose and dose-response) were performed by incubating 0.6 nM of [3H]CP55,940 (specific activity 101 Ci/mmol, Perkin Elmer) and different concentrations of compounds disclosed herein with membranes prepared as above from CHO-K1 cells expressing human CB2 receptor (1 μg of protein/well), 50 mM Tris-HCl (pH 7.4), 5 mM MgCl2, 1 mM CaCl2, and 2 mg/mL BSA.
For the single dose experiments, the compound stocks (usually 10 mM in DMSO) were diluted to working stocks in the binding buffer to give the final compound concentrations of 10 μM and 1 μM. For the dose-response experiments the test compounds were sequentially diluted to provide the desired concentration range for the IC50 determination. In each case the compounds were pre-incubated with the membrane for 20 min, before adding the radioligand.
After incubation with the radioligand for 60 min at 37° C., the incubation was terminated by rapid filtration of assay mixture through MultiScreen®HTS^+ 96-well filter plates (Millipore, Cat. #MSFCNXB), pre-soaked for 60 min with 50 mM Tris-HCl (pH 7.4) containing 0.33% polyethylenimine (PEI). The nonspecific binding (NSB) was determined in the presence of 10 μM unlabelled CP55,940. After drying the filter plate at 50° C. for at least 60 min, the filter-bound radioactivity was determined by scintillation spectrometry using the 1450 MicroBeta Plate Counter (Perkin Elmer, Boston, MA). From the dose-response experiments, the IC50 values were determined (see Table 1, CB2 IC50).

For assay [1], the target named is T2, human CB1 receptor (Homo sapiens, UniProt P21554).
T2 construct: host or cells: CHO-K1 (Chinese hamster ovary) cells, membrane preparation
Put plainly: CB1 radioligand competitive binding assay ([3H]CP 55,940 displacement). The conditions noted are these: for IC50: membranes of CHO-K1 cells expressing human CB1 receptor, 0.8 nM [3H]CP 55,940.

The target of assay [2] is T2, human CB1 receptor. Put plainly: PathHunter β-Arrestin functional assay, CB1 receptor, agonist mode. The assay is classed as cell-based. The conditions noted are these: PathHunter CHO-K1 CNR1 β-Arrestin cells, normalized to CP55,940.
The target of assay [3] is T2, human CB1 receptor. Put plainly: PathHunter β-Arrestin functional assay, CB1 receptor, antagonist mode. It counts as cell-based. The settings on record: range stated for the group of compounds, read-out: IC50 towards human CB1 receptor in antagonist mode.

T2 sequence (P21554 whole entry): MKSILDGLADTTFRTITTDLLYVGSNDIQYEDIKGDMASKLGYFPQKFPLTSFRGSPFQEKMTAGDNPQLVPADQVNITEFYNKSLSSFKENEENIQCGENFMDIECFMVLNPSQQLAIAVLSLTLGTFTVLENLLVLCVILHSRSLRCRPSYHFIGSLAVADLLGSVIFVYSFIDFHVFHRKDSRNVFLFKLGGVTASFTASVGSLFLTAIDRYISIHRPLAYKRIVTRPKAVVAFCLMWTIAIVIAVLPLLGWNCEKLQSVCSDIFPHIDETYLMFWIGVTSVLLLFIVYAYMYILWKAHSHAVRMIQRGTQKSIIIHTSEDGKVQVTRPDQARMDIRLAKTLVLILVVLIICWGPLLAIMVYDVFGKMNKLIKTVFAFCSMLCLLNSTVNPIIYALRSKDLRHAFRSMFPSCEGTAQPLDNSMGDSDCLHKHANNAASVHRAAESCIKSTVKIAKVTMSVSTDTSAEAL
T1 sequence (P34972 whole entry): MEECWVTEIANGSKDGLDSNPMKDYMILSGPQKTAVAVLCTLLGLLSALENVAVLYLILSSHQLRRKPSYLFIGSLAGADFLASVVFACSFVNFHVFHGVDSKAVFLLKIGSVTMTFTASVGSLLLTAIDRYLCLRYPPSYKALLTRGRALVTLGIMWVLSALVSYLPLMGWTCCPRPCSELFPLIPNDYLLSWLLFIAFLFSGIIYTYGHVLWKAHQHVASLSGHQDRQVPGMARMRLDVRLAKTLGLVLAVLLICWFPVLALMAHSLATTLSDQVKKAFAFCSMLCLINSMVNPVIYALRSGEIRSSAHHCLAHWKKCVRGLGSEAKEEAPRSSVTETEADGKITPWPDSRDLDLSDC

The term IC50 denotes the point on the concentration scale where inhibition reaches its midpoint. Consider `CCCCCc1cc(O)c(C2C=C(C)CCC2)c(OP(=O)(Cc2ccccc2)OCC)c1` (stereo not drawn) [Example 35c, ethyl (6-hydroxy-5′-methyl-4-pentyl-1′,2′,3′,4′-tetrahydro-[1,1′-biphenyl]-2-yl) benzylphosphonate], for which, at human CB2 receptor, the “Selectivity CB2 (fold difference in selectivity between CB1 and CB2 binding)” value is reported as 3.25 fold; the IC50 was in the range of 1000 to 4990 nM. In addition, on human CB1 receptor [1], the IC50 is ≥ 5000 nM.

For the compound `C=C(C)C1CCC(C)=CC1c1c(O)cc(C(C)(C)CCCCCC)cc1OP(=O)(Cc1ccccc1)OC` (stereo not drawn) [Example 38d, 6-hydroxy-5′-methyl-4-(2-methyloctan-2-yl)-2′-(prop-1-en-2-yl)-1′,2′,3′,4′-tetrahydro-[1,1′-biphenyl]-2-yl methyl benzylphosphonate], the “Selectivity CB2 (fold difference in selectivity between CB1 and CB2 binding)” value at human CB2 receptor amounted to 1.82 fold. Further, the figures for the IC50 on human CB2 receptor, at human CB1 receptor [1] and at human CB1 receptor [3] were < 500 nM, 500 to 990 nM and 780 to 3000 nM, respectively. For the same compound, at human CB1 receptor [2], the “activity towards the human CB1 receptor in agonist mode” value is given as “minimal to no activity”.

As to `CCCCCCC(C)(C)c1cc(O)c(C2C=C(C)CCC2)c(OP(=O)(OC)c2ccccc2)c1` (stereo not drawn) [Example 37c, 6-hydroxy-5′-methyl-4-(2-methyloctan-2-yl)-1′,2′,3′,4′-tetrahydro-[1,1′-biphenyl]-2-yl methyl phenylphosphonate], the “activity towards the human CB1 receptor in agonist mode” value at human CB1 receptor [2] is on record as “minimal to no activity”. The IC50 at human CB1 receptor [3] lay within 780 to 3000 nM.

As to `CCCCCc1cc(OP(=O)(OCC)c2ccccc2)c(-c2cccc(C)c2)c(OP(=O)(OCC)c2ccccc2)c1` (stereo not drawn) [34′a, diethyl (3′-methyl-4-pentyl-[1,1′-biphenyl]-2,6-diyl) bis(phenylphosphonate)], at human CB2 receptor, the “Selectivity CB2 (fold difference in selectivity between CB1 and CB2 binding)” value worked out at 1.95 fold; the concentration for half-maximal inhibition (IC50) was in the range of 1000 to 4990 nM. Further, the IC50 at human CB1 receptor [1] was in the range of 1000 to 4990 nM.

Consider `C=C(C)C1CCC(C)=CC1c1c(O)cc(C(C)(C)CCCCCC)cc1OP(=O)(Cc1ccccc1)OCC` (stereo not drawn) [Example 39d, ethyl (6-hydroxy-5′-methyl-4-(2-methyloctan-2-yl)-2′-(prop-1-en-2-yl)-1′,2′,3′,4′-tetrahydro-[1,1′-biphenyl]-2-yl) benzylphosphonate], for which, at human CB2 receptor, the “Selectivity CB2 (fold difference in selectivity between CB1 and CB2 binding)” value was 1.10 fold; the IC50 lay within 500 to 990 nM. Further, at human CB1 receptor [1], the IC50 lay in the range of 500 to 990 nM.

`CCCCCc1cc(O)c(-c2cccc(C)c2)c(OP(=O)(OCC)c2ccccc2)c1` (stereo not drawn) [Example 34a, ethyl (6-hydroxy-3′-methyl-4-pentyl-[1,1′-biphenyl]-2-yl) phenylphosphonate]: at human CB2 receptor, the “Selectivity CB2 (fold difference in selectivity between CB1 and CB2 binding)” value amounted to 10.26 fold; the IC50 is < 500 nM. At human CB1 receptor [1], this compound gave an IC50 of 1000 to 4990 nM.

With `CCCCCc1cc(O)c(C2C=C(C)CCC2)c(OP(=O)(Cc2ccccc2)OC)c1` (stereo not drawn) [Example 4c, 6-hydroxy-5′-methyl-4-pentyl-1′,2′,3′,4′-tetrahydro-[1,1′-biphenyl]-2-yl methyl benzylphosphonate], the “Selectivity CB2 (fold difference in selectivity between CB1 and CB2 binding)” value on human CB2 receptor is listed as 1.54 fold. In addition, the IC50 on human CB2 receptor and at human CB1 receptor [1] was 1000 to 4990 nM each time.

With `CCCCCc1cc(O)c(C2C=C(C)CCC2)c(OP(=O)(OCC)c2ccccc2)c1` (stereo not drawn) [Example 34c, ethyl (6-hydroxy-5′-methyl-4-pentyl-1′,2′,3′,4′-tetrahydro-[1,1′-biphenyl]-2-yl) phenylphosphonate], at human CB2 receptor, the “Selectivity CB2 (fold difference in selectivity between CB1 and CB2 binding)” value is recorded as 1.69 fold; the IC50 fell in the range of 1000 to 4990 nM. This compound came in with an IC50 at human CB1 receptor [1] of 1000 to 4990 nM.

With `C=C(C)C1CCC(C)=CC1c1c(O)cc(C(C)(C)CCCCCC)cc1OP(=O)(OC)c1ccccc1` (stereo not drawn) [Example 37d, 6-hydroxy-5′-methyl-4-(2-methyloctan-2-yl)-2′-(prop-1-en-2-yl)-1′,2′,3′,4′-tetrahydro-[1,1′-biphenyl]-2-yl methyl phenylphosphonate], at human CB2 receptor, the “Selectivity CB2 (fold difference in selectivity between CB1 and CB2 binding)” value is reported as 2.02 fold. Further, the IC50 is < 500 nM at human CB2 receptor, 500 to 990 nM at human CB1 receptor [1] and 780 to 3000 nM at human CB1 receptor [3]. For the same compound, at human CB1 receptor [2], the “activity towards the human CB1 receptor in agonist mode” value is “minimal to no activity”.

For `CCCCCCC(C)(C)c1cc(O)c(C2C=C(C)CCC2)c(OP(=O)(Cc2ccccc2)OC)c1` (stereo not drawn) [Example 38c, 6-hydroxy-5′-methyl-4-(2-methyloctan-2-yl)-1′,2′,3′,4′-tetrahydro-[1,1′-biphenyl]-2-yl methyl benzylphosphonate], the “Selectivity CB2 (fold difference in selectivity between CB1 and CB2 binding)” value on human CB2 receptor is listed as 4.96 fold. In addition, the values for the IC50 at human CB2 receptor, at human CB1 receptor [1] and at human CB1 receptor [3] were 500 to 990 nM, 1000 to 4990 nM and 780 to 3000 nM, respectively. On human CB1 receptor [2], the “activity towards the human CB1 receptor in agonist mode” value was “minimal to no activity”.

Turning to `C=C(C)C1CCC(C)=CC1c1c(O)cc(CCCCC)cc1OP(=O)(Cc1ccccc1)OC` (stereo not drawn) [Example 4d, 6-hydroxy-5′-methyl-4-pentyl-2′-(prop-1-en-2-yl)-1′,2′,3′,4′-tetrahydro-[1,1′-biphenyl]-2-yl methyl benzylphosphonate], the “Selectivity CB2 (fold difference in selectivity between CB1 and CB2 binding)” value at human CB2 receptor came out at 1.00 fold. The values for the IC50 on human CB2 receptor, on human CB1 receptor [1] and on human CB1 receptor [3] were < 500 nM, < 500 nM and 780 to 3000 nM, respectively. Also, the “activity towards the human CB1 receptor in agonist mode” value at human CB1 receptor [2] was “minimal to no activity”. Also, the “Selectivity CB1 (fold difference in selectivity between CB1 and CB2 binding)” value on human CB1 receptor [1] (given in the column of the receptor with the higher binding affinity, 1.00 in both = about the same affinity) turned out to be 1.00 fold.

`CCCCCc1cc(O)c(-c2cccc(C)c2)c(OP(=O)(Cc2ccccc2)OCC)c1` (stereo not drawn) [Example 35a, ethyl (6-hydroxy-3′-methyl-4-pentyl-[1,1′-biphenyl]-2-yl) benzylphosphonate] came in with a half-inhibitory concentration (IC50) at human CB2 receptor of 1000 to 4990 nM.
